Tested on: adult human epidermal keratinocytes (aHEK)
Experiment: Proliferation of adult human epidermal keratinocytes (aHEK)
Format: cell-based
Details: 100 ug/ml; vs water (0 μg/ml)
Text: Example 3(e): FIG. 6 depicts the effect of threitol-1 diphosphate on the proliferation of adult human epidermal keratinocytes (aHEK).

## O=P(O)(O)OP(=O)(O)OC[C@@H](O)[C@H](O)CO [DP sSBD4, threitol-1-diphosphate]
  stimulation of human adult epidermal keratinocyte proliferation: 17%

— US8236784B2, “Composition comprising threitol phosphate and salts thereof” (Sunny Biodiscovery, Inc., priority 2007, dated 2012)
